Assay results reported in ChEMBL document CHEMBL3621049, “Imidazole derivatives show anticancer potential by inducing apoptosis and cellular senescence” (2014).
The source made the active and inactive calls.

Key:
Assay type in all cases: functional, cell-based
CCRF-CEM = experiment: Growth inhibition of human CCRF-CEM cells at 10 uM by sulforhodamine B assay
HL-60(TB) = experiment: Growth inhibition of human HL-60(TB) cells at 10 uM by sulforhodamine B assay
K562 = experiment: Growth inhibition of human K562 cells at 10 uM by sulforhodamine B assay
MOLT-4 = experiment: Growth inhibition of human MOLT4 cells at 10 uM by sulforhodamine B assay
RPMI-8226 = experiment: Growth inhibition of human RPMI8226 cells at 10 uM by sulforhodamine B assay
SR = experiment: Growth inhibition of human SR cells at 10 uM by sulforhodamine B assay
A549 = experiment: Growth inhibition of human A549/ATCC cells at 10 uM by sulforhodamine B assay
HOP-62 = experiment: Growth inhibition of human HOP62 cells at 10 uM by sulforhodamine B assay
NCI-H226 = experiment: Growth inhibition of human NCI-H226 cells at 10 uM by sulforhodamine B assay
NCI-H23 = experiment: Growth inhibition of human NCI-H23 cells at 10 uM by sulforhodamine B assay
NCI-H322M = experiment: Growth inhibition of human NCI-H322M cells at 10 uM by sulforhodamine B assay
NCI-H460 = experiment: Growth inhibition of human NCI-H460 cells at 10 uM by sulforhodamine B assay
NCI-H522 = experiment: Growth inhibition of human NCI-H522 cells at 10 uM by sulforhodamine B assay
COLO 205 = experiment: Growth inhibition of human COLO205 cells at 10 uM by sulforhodamine B assay
HCT-116 = experiment: Growth inhibition of human HCT116 cells at 10 uM by sulforhodamine B assay
HCT-15 = experiment: Growth inhibition of human HCT15 cells at 10 uM by sulforhodamine B assay
HT-29 = experiment: Growth inhibition of human HT-29 cells at 10 uM by sulforhodamine B assay
KM12 = experiment: Growth inhibition of human KM12 cells at 10 uM by sulforhodamine B assay
SW-620 = experiment: Growth inhibition of human SW620 cells at 10 uM by sulforhodamine B assay
SF-268 = experiment: Growth inhibition of human SF268 cells at 10 uM by sulforhodamine B assay
SF-295 = experiment: Growth inhibition of human SF295 cells at 10 uM by sulforhodamine B assay
SF-539 = experiment: Growth inhibition of human SF539 cells at 10 uM by sulforhodamine B assay
SNB-19 = experiment: Growth inhibition of human SNB19 cells at 10 uM by sulforhodamine B assay
SNB-75 = experiment: Growth inhibition of human SNB75 cells at 10 uM by sulforhodamine B assay
U-251 = experiment: Growth inhibition of human U251 cells at 10 uM by sulforhodamine B assay
LOX IMVI = experiment: Growth inhibition of human LOXIMVI cells at 10 uM by sulforhodamine B assay
M14 = experiment: Growth inhibition of human M14 cells at 10 uM by sulforhodamine B assay
MDA-MB-435 = experiment: Growth inhibition of human MDA-MB-435 cells at 10 uM by sulforhodamine B assay
SK-MEL-2 = experiment: Growth inhibition of human SK-MEL-2 cells at 10 uM by sulforhodamine B assay
SK-MEL-28 = experiment: Growth inhibition of human SK-MEL-28 cells at 10 uM by sulforhodamine B assay
SK-MEL-5 = experiment: Growth inhibition of human SK-MEL-5 cells at 10 uM by sulforhodamine B assay
UACC-257 = experiment: Growth inhibition of human UACC257 cells at 10 uM by sulforhodamine B assay
IGROV-1 = experiment: Growth inhibition of human IGROV1 cells at 10 uM by sulforhodamine B assay
OVCAR-3 = experiment: Growth inhibition of human OVCAR3 cells at 10 uM by sulforhodamine B assay
OVCAR-4 = experiment: Growth inhibition of human OVCAR4 cells at 10 uM by sulforhodamine B assay
OVCAR-5 = experiment: Growth inhibition of human OVCAR5 cells at 10 uM by sulforhodamine B assay
OVCAR-8 = experiment: Growth inhibition of human OVCAR8 cells at 10 uM by sulforhodamine B assay
NCI/ADR-RES = experiment: Growth inhibition of human NCI/ADR-RES cells at 10 uM by sulforhodamine B assay
SK-OV-3 = experiment: Growth inhibition of human SKOV3 cells at 10 uM by sulforhodamine B assay
786-0 = experiment: Growth inhibition of human 786-0 cells at 10 uM by sulforhodamine B assay
A498 = experiment: Growth inhibition of human A498 cells at 10 uM by sulforhodamine B assay
ACHN = experiment: Growth inhibition of human ACHN cells at 10 uM by sulforhodamine B assay
CAKI-1 = experiment: Growth inhibition of human Caki1 cells at 10 uM by sulforhodamine B assay
SN12C = experiment: Growth inhibition of human SN12C cells at 10 uM by sulforhodamine B assay
UO-31 = experiment: Growth inhibition of human UO31 cells at 10 uM by sulforhodamine B assay
PC-3 = experiment: Growth inhibition of human PC3 cells at 10 uM by sulforhodamine B assay
DU-145 = experiment: Growth inhibition of human DU145 cells at 10 uM by sulforhodamine B assay
MCF7 = experiment: Growth inhibition of human MCF7 cells at 10 uM by sulforhodamine B assay
MDA-MB-231 = experiment: Growth inhibition of human MDA-MB-231 cells at 10 uM by sulforhodamine B assay
Hs-578T = experiment: Growth inhibition of human Hs 578T cells at 10 uM by sulforhodamine B assay
BT-549 = experiment: Growth inhibition of human BT549 cells at 10 uM by sulforhodamine B assay
T47D = experiment: Growth inhibition of human T47D cells at 10 uM by sulforhodamine B assay
MDA-MB-468 = experiment: Growth inhibition of human MDA-MB-468 cells at 10 uM by sulforhodamine B assay
TK-10 = experiment: Growth inhibition of human TK10 cells at 10 uM by sulforhodamine B assay
UACC-62 = experiment: Growth inhibition of human UACC62 cells at 10 uM by sulforhodamine B assay
HOP-92 = experiment: Growth inhibition of human HOP92 cells at 10 uM by sulforhodamine B assay
Malme-3M = experiment: Growth inhibition of human MALME-3M cells at 10 uM by sulforhodamine B assay
HCC 2998 = experiment: Growth inhibition of human HCC2998 cells at 10 uM by sulforhodamine B assay
RXF 393 = experiment: Growth inhibition of human RXF393 cells at 10 uM by sulforhodamine B assay

Measured: growth inhibition (GI)

COc1ccc(-c2nc(-c3ccccc3)c(-c3ccccc3)n2C2CC2)cc1OC1CCCC1
active: CCRF-CEM | HL-60(TB) | K562 | MOLT-4 | RPMI-8226 | SR | A549 | HOP-62 | NCI-H226 | NCI-H23 | NCI-H322M | NCI-H460 | NCI-H522 | COLO 205 | HCT-116 | HCT-15 | HT-29 | KM12 | SW-620 | SF-268 | SF-295 | SF-539 | SNB-19 | SNB-75 | U-251 | LOX IMVI | M14 | MDA-MB-435 | SK-MEL-2 | SK-MEL-28 | SK-MEL-5 | UACC-257 | IGROV-1 | OVCAR-3 | OVCAR-4 | OVCAR-5 | OVCAR-8 | NCI/ADR-RES | SK-OV-3 | 786-0 | A498 | ACHN | CAKI-1 | SN12C | UO-31 | PC-3 | DU-145 | MCF7 | MDA-MB-231 | Hs-578T | BT-549 | T47D | MDA-MB-468 | TK-10 | UACC-62 | HOP-92 | Malme-3M | HCC 2998 | RXF 393
